Values joined by “and” are separate entries in the source; they are usually repeats but may differ in a detail not shown here. Equal entries are not always repeated. Where two headings read alike, the source gives them in different places.
Legend:
L1210 leukemia [1] = assay: L1210 leukemia in BD (2) F1 female mice, i.p., 10-alkyl derivatives (Example 9, Table II); details: for AST / ILS: every two days times five; for antileukemic activity compared with methotrexate: on a similar dosage level
L1210 leukemia [2] = assay: L1210 leukemia in BD (2) F1 female mice, i.p., increase in median life span (Example 8, Table I); details: for Increased life span / Median life span / Weight change: three times per week
[3] = Plasma and tissue (tumor, small intestine and marrow) pharmacokinetics; assay type: in vivo; details: for Plasma and tissue pharmacokinetics: small intestine and marrow, dAM versus MTX
in vivo = details: read-out: acute LD50
carrier in tumor = assay: membrane transport by carrier in tumor; assay type: cell-based
ascites tumor systems = assay: Ascites tumor systems, summary of Examples 10 to 13; assay type: in vivo, mice; details: all of the ascites tumor systems examined
Streptococcus faecium = details: DeGraw et al., J. Heterocyclic Chem. 8 105 (1971); cited from earlier work
dihydrofolic reductase = details: cited from earlier work
[4] = 6.0 mg/kg oral every 2 days × 5

Source text for Ehrlich ascites: (§1) ^1 One dose (s.c.) every 2 days for a total of 5 doses.
(§2) ^2 Toxic animals weigh 13-15 g at death (original weight 20 g).
(§3) MST = Median survival time ± standard deviation.
ILS = Increased life span.
Source text for L1210 ascites: ^1 One dose every 2 days for a total of 5 doses.
^2 Animals weigh 13-15 g at death (original weight 20 g).
as §3
ILS = increased life span.
Each dose tested 2 to 4 times.
Source text for P815 ascites: as §1, §3
ILS = Increased life span.
Each dosage tested twice.
Source text for S180-J ascites: as §1, §2, §3
ILS = Increased life span.
Each dose tested 2 to 3 times.

CC(Cc1cnc2nc(N)nc(N)c2n1)c1ccc(C(=O)N[C@@H](CCC(=O)O)C(=O)O)cc1 (stereo partly shown) [10-methyl-10-deazaminopterin, 10-Methyl-10-deazaminopterin]
AST (L1210 leukemia [1]; 12 mg/kg i.p.): 18.1 ± 1.9 days | ILS (L1210 leukemia [1]; 12 mg/kg i.p.): +170% | AST (L1210 leukemia [1]; 18 mg/kg i.p.): 22.2 ± 1.6 days | ILS (L1210 leukemia [1]; 18 mg/kg i.p.): +230% | life span of the test mice (L1210 leukemia [1]; i.p.): very considerably increased | Toxicity (L1210 leukemia [1]; maximum dose, about 22 mg/kg, i.p.): slight toxicity | antileukemic activity compared with methotrexate (L1210 leukemia [1]; i.p.): superior to methotrexate

Nc1nc(N)c2nc(CCc3ccc(C(=O)N[C@@H](CCC(=O)O)C(=O)O)cc3)cnc2n1 [10-deazaminopterin, 10-Deazaminopterin]
ILS (increased life span) (S180-J ascites; 3 mg/kg s.c. every 2 days × 5): 8.7% | MST (median survival time) (S180-J ascites; 3 mg/kg s.c. every 2 days × 5): 13.0 ± 1.1 days | ILS (increased life span) (S180-J ascites; 6 mg/kg s.c. every 2 days × 5): 74.8% | MST (median survival time) (S180-J ascites; 6 mg/kg s.c. every 2 days × 5): 21.2 ± 1.7 days | ILS (increased life span) (S180-J ascites; 9 mg/kg s.c. every 2 days × 5): 117.3% | MST (median survival time) (S180-J ascites; 9 mg/kg s.c. every 2 days × 5): 26.3 ± 0.7 days | 60 day survivors (S180-J ascites; 12 mg/kg s.c. every 2 days × 5): Two | ILS (increased life span) (S180-J ascites; 12 mg/kg s.c. every 2 days × 5): > 159.6% | MST (median survival time) (S180-J ascites; 12 mg/kg s.c. every 2 days × 5): > 31.4 ± 2.5 days | ILS (increased life span) (S180-J ascites; 18 mg/kg s.c. every 2 days × 5): 54.0% | MST (median survival time) (S180-J ascites; 18 mg/kg s.c. every 2 days × 5): 18.6 ± 2.4 days | long-term survivors (S180-J ascites; against S180, s.c.): long-term survivors | Maximum ILS (S180-J ascites; against S180, s.c., q2d×5): > +160% | Toxic Deaths (S180-J ascites; mouse, in vivo): 0/10 and 0/15 and 7/10 | ILS (increased life span) (L1210 ascites; 3 mg/kg oral every 2 days × 5): 77% | MST (median survival time) (L1210 ascites; 3 mg/kg oral every 2 days × 5): 11.7 ± 1.0 days | ILS (increased life span) (L1210 ascites; 3 mg/kg s.c. every 2 days × 5): 108% | MST (median survival time) (L1210 ascites; 3 mg/kg s.c. every 2 days × 5): 13.8 ± 0.7 days | ILS (increased life span) (L1210 ascites; [4]): 122% | MST (median survival time) (L1210 ascites; [4]): 14.7 ± 1.3 days | ILS (increased life span) (L1210 ascites; 6 mg/kg s.c. every 2 days × 5): 131% | MST (median survival time) (L1210 ascites; 6 mg/kg s.c. every 2 days × 5): 15.2 ± 1.5 days | ILS (increased life span) (L1210 ascites; 9 mg/kg s.c. every 2 days × 5): 168% | MST (median survival time) (L1210 ascites; 9 mg/kg s.c. every 2 days × 5): 17.8 ± 0.8 days | ILS (increased life span) (L1210 ascites; 12 mg/kg s.c. every 2 days × 5): 176% | MST (median survival time) (L1210 ascites; 12 mg/kg s.c. every 2 days × 5): 18.2 ± 1.3 days | Maximum ILS (L1210 ascites; against L1210, orally, same dosage and schedule): +122% | Maximum ILS (L1210 ascites; against L1210, s.c., q2d×5): +172% | Maximum ILS (L1210 ascites; ip): +203% | Toxic Deaths (L1210 ascites; mouse, in vivo): 0/10 and 0/15 and 1/15 and 0/20 | Increased life span (L1210 leukemia [2]; 0.1875 mg/kg i.p.): 3.0% | Median life span (L1210 leukemia [2]; 0.1875 mg/kg i.p.): 7.2 ± 0.6 days | Weight change (L1210 leukemia [2]; 0.1875 mg/kg i.p.): +10% | Increased life span (L1210 leukemia [2]; 0.375 mg/kg i.p.): 29.7% | Median life span (L1210 leukemia [2]; 0.375 mg/kg i.p.): 8.9 ± 1.0 days | Weight change (L1210 leukemia [2]; 0.375 mg/kg i.p.): +7% | Increased life span (L1210 leukemia [2]; 3.0 mg/kg i.p.): 164.8% | Median life span (L1210 leukemia [2]; 3.0 mg/kg i.p.): 13.0 ± 1.9 days | Weight change (L1210 leukemia [2]; 3.0 mg/kg i.p.): +5% | Toxicity (L1210 leukemia [2]; 6.0 mg/kg i.p.): slight toxicity | Increased life span (L1210 leukemia [2]; 6.0 mg/kg i.p.): 210.0% | Median life span (L1210 leukemia [2]; 6.0 mg/kg i.p.): 21.8 ± 1.5 days | Weight change (L1210 leukemia [2]; 6.0 mg/kg i.p.): -3% | life span of the test mice (L1210 leukemia [2]; i.p.): very considerably increased | antileukemic activity compared with methotrexate (L1210 leukemia [2]; on a similar dosage level, i.p.): superior to methotrexate | persistence of exchangeable drug in tumor ([3]; optimum dosages, dAM over MTX): greater persistence | Plasma and tissue pharmacokinetics [3]: similar | LD50 (in vivo): 65 mg/kg | competition for carrier mechanism (carrier in tumor; dAM and MTX): compete for the same carrier mechanism | affinity of carrier in tumor (carrier in tumor; dAM versus MTX): greater affinity | saturability (Km) for influx (carrier in tumor; membrane transport in tumor, dAM versus MTX): favoring greater accumulation of dAM | ILS (increased life span) (P815 ascites; 6 mg/kg s.c. every 2 days × 5): 107.6% | MST (median survival time) (P815 ascites; 6 mg/kg s.c. every 2 days × 5): 18.2 ± 1.3 days | ILS (increased life span) (P815 ascites; 9 mg/kg s.c. every 2 days × 5): 116.3% | MST (median survival time) (P815 ascites; 9 mg/kg s.c. every 2 days × 5): 19.0 ± 0.9 days | ILS (increased life span) (P815 ascites; 12 mg/kg s.c. every 2 days × 5): 118.4% | MST (median survival time) (P815 ascites; 12 mg/kg s.c. every 2 days × 5): 19.2 ± 1.2 days | Maximum ILS (P815 ascites; against P815, s.c., q2d×5): +117% | Toxic Deaths (P815 ascites; mouse, in vivo): 0/10 | activity compared with methotrexate (ascites tumor systems): more active than methotrexate | ILS (increased life span) (Ehrlich ascites; 6 mg/kg s.c. every 2 days × 5): 34.8% | MST (median survival time) (Ehrlich ascites; 6 mg/kg s.c. every 2 days × 5): 23.2 ± 1.8 days | ILS (increased life span) (Ehrlich ascites; 9 mg/kg s.c. every 2 days × 5): 58.1% | MST (median survival time) (Ehrlich ascites; 9 mg/kg s.c. every 2 days × 5): 27.2 ± 2.2 days | ILS (increased life span) (Ehrlich ascites; 12 mg/kg s.c. every 2 days × 5): 64.0% | MST (median survival time) (Ehrlich ascites; 12 mg/kg s.c. every 2 days × 5): 28.2 ± 2.9 days | Maximum ILS (Ehrlich ascites; against Ehrlich, s.c., q2d×5): +61% | Toxic Deaths (Ehrlich ascites; mouse, in vivo): 0/10

Nc1nc2ncc(CCc3ccc(C(=O)O)cc3)nc2c(=O)[nH]1 [10-deazapteroic acid]
growth-inhibitory activity (Streptococcus faecium): potent growth-inhibitory activity

CN(Cc1cnc2nc(N)nc(N)c2n1)c1ccc(C(=O)N[C@@H](CCC(=O)O)C(=O)O)cc1 [Methotrexate, reference compound]
Weight change (L1210 leukemia [2]; 3.0 mg/kg i.p.): +8% | Toxicity (L1210 leukemia [2]; 6.0 mg/kg i.p.): Slight toxicity | Weight change (L1210 leukemia [2]; 6.0 mg/kg i.p.): +3% | Plasma and tissue pharmacokinetics [3]: similar | LD50 (in vivo; ip or sc): 96 mg/kg | MST (median survival time) (P815 ascites; 6 mg/kg s.c. every 2 days × 5): 15.4 ± 1.1 days | Toxic Deaths (P815 ascites; 6 mg/kg s.c. every 2 days × 5): 0/10 | MST (median survival time) (P815 ascites; 9 mg/kg s.c. every 2 days × 5): 17.6 ± 1.6 days | Toxic Deaths (P815 ascites; 9 mg/kg s.c. every 2 days × 5): 0/10 | MST (median survival time) (P815 ascites; 12 mg/kg s.c. every 2 days × 5): 18.4 ± 1.3 days | Toxic Deaths (P815 ascites; 12 mg/kg s.c. every 2 days × 5): 0/10 | MST (median survival time) (Ehrlich ascites; 6 mg/kg s.c. every 2 days × 5): 19.8 ± 2.3 days | Toxic Deaths (Ehrlich ascites; 6 mg/kg s.c. every 2 days × 5): 0/10 | MST (median survival time) (Ehrlich ascites; 9 mg/kg s.c. every 2 days × 5): 20.8 ± 3.0 days | Toxic Deaths (Ehrlich ascites; 9 mg/kg s.c. every 2 days × 5): 0/10 | MST (median survival time) (Ehrlich ascites; 12 mg/kg s.c. every 2 days × 5): 20.2 ± 1.9 days | Toxic Deaths (Ehrlich ascites; 12 mg/kg s.c. every 2 days × 5): 0/10 | dihydrofolic reductase inhibition (dihydrofolic reductase): powerful dihydrofolic reductase inhibitors

CCC(Cc1cnc2nc(N)nc(N)c2n1)c1ccc(C(=O)N[C@@H](CCC(=O)O)C(=O)O)cc1 (stereo partly shown) [10-ethyl-10-deazaminopterin]
AST (L1210 leukemia [1]; 12 mg/kg i.p.): 18.3 ± 1.7 days | ILS (L1210 leukemia [1]; 12 mg/kg i.p.): +172% | AST (L1210 leukemia [1]; 18 mg/kg i.p.): 21.8 ± 1.4 days | ILS (L1210 leukemia [1]; 18 mg/kg i.p.): +220% | life span of the test mice (L1210 leukemia [1]; i.p.): very considerably increased | antileukemic activity compared with methotrexate (L1210 leukemia [1]; i.p.): superior to methotrexate

— US4433147A, “Process for preparing 10-deazaminopterins” (priority 1982, dated 1984)
